Experimental data: ChEMBL document CHEMBL5608179, “Triptonide induces apoptosis and inhibits the proliferation of ovarian cancer cells by activating the p38/p53 pathway and autophagy” (Bioorg Med Chem, 2024)
Activity calls are given as the source filed them. No cut-off for these calls is given here.

What was measured:
[1] = test system: A2780; experiment: Induction of apoptosis in human A2780 cells assessed as apoptotic rate measured at 2 to 8 nM by Annexin V-FITC/PI flow cytometry; type: functional, cell-based; details: dose 2-8 nM, time 24-72 hrs, TDE = time-dependent effect
[2] = test system: A2780; experiment: Induction of cell cycle arrest in human A2780 cells assessed as accumulation of cells at G2 phase in presence of SB203580 at 4 nM measured after 24 hrs by PI staining based Cell Cycle Analysis Kit (KeyGEN) (reference value: 24.5%); type: functional
[3] = test system: A2780; experiment: Induction of apoptosis in human A2780 cells assessed as apoptotic rate measured after 24 to 72 hrs by Annexin V-FITC/PI flow cytometry; type: functional, cell-based; details: dose 2-8 nM, time 24-72 hrs
[4] = test system: A2780; experiment: Cytotoxicity against human A2780 cells assessed as cell viability measured at 4 to 64 nM by MTT assay; type: functional, cell-based; details: dose 4-64 nM, time 24-72 hrs, TDE = time-dependent effect
[5] = test system: A2780; experiment: Induction of cell cycle arrest at S phase in human A2780 cells assessed as increase in cyclin E1 proteins measured after 24 hrs by Western blot analysis; type: functional, cell-based; details: dose 5-20 nM
[6] = test system: A2780; experiment: Induction of apoptosis in human A2780 cells assessed as necrotic cells in presence of SB203580 at 8 nM measured after 24 to 72 hrs by Annexin V-FITC/PI flow cytometry (reference value: 0.39%); type: functional; details: time 24-72 hrs
[7] = test system: A2780; experiment: Induction of p38 expression in human A2780 cells at 5 to 20 nM measured after 24 hrs by Western blot analysis; type: functional, cell-based; details: dose 5-20 nM
[8] = test system: A2780; experiment: Induction of apoptosis in human A2780 cells assessed as viable cells in presence of bafilomycin A1 at 800 nM measured after 24 hrs by Annexin V-FITC/PI flow cytometry (reference value: 96.1%); type: functional
[9] = test system: A2780; experiment: Induction of cleaved PARP level in human A2780 cells in presence of autophagy inhibitor bafilomycin A1 at 5 to 20 nM measured after 24 hrs by Western blot analysis; type: functional, cell-based; details: dose 5-20 nM
[10] = test system: A2780; experiment: Induction of apoptosis in human A2780 cells assessed as early apoptotic cells at 4 nM measured after 24 hrs by Annexin V-FITC/PI flow cytometry (reference value: 2.82%); type: functional
[11] = test system: A2780; experiment: Antiproliferative activity against human A2780 cells assessed as number of fluorescent dots in presence of SB203580 at 4 nM measured after 24 hrs by KitkFluor555 Click-iT EdU Kit staining assay; type: functional, cell-based
[12] = test system: A2780; experiment: Induction of apoptosis in human A2780 cells assessed as increase in cleaved caspase 9 level measured at 5 to 20 nM by Western blot analysis; type: functional, cell-based; details: dose 5-20 nM, time 12-48 hrs, TDE = time-dependent effect
[13] = test system: A2780; experiment: Induction of apoptosis in human A2780 cells assessed as viable cells at 800 nM measured after 24 hrs by Annexin V-FITC/PI flow cytometry (reference value: 96.1%); type: functional; details: read-out: Activity
[14] = test system: A2780; experiment: Induction of apoptosis in human A2780 cells assessed as decrease in cleaved Bcl-2 level measured at 5 to 20 nM after 12 to 48 hrs by Western blot analysis; type: functional, cell-based; details: dose 5-20 nM, time 12-48 hrs
[15] = test system: A2780; experiment: Induction of apoptosis in human A2780 cells assessed as viable cells in presence of p53 SiRNA 1 at 4 nM measured after 24 hrs by Annexin V-FITC/PI flow cytometry (reference value: 94.2%); type: functional
[16] = test system: A2780; experiment: Induction of apoptosis in human A2780 cells assessed as early apoptotic cells in presence of p53 SiRNA 1 at 4 nM measured after 24 hrs by Annexin V-FITC/PI flow cytometry (reference value: 2.82%); type: functional
[17] = test system: A2780; experiment: Induction of cell cycle arrest in human A2780 cells assessed as accumulation of cells at G2 phase at 4 nM measured after 24 hrs by PI staining based Cell Cycle Analysis Kit (KeyGEN) (reference value: 24.5%); type: functional
[18] = test system: A2780; experiment: Antiproliferative activity against human A2780 cells assessed as number of fluorescent dots in presence of p53 SiRNA 1 at 4 nM measured after 24 hrs by KitkFluor555 Click-iT EdU Kit staining assay; type: functional, cell-based
[19] = test system: A2780; experiment: Induction of apoptosis in human A2780 cells assessed as necrotic cells at 4 nM measured after 24 hrs by Annexin V-FITC/PI flow cytometry (reference value: 0.39%); type: functional
[20] = test system: A2780; experiment: Induction of cleaved PARP level in human A2780 cells at 5 to 20 nM measured after 24 hrs by Western blot analysis; type: functional, cell-based; details: dose 5-20 nM
[21] = test system: A2780; experiment: Induction of cell cycle arrest at S phase in human A2780 cells assessed as increase in cyclin B1 proteins in presence of SB203580 measured at 10 nM after 24 hrs by Western blot analysis; type: functional, cell-based
[22] = test system: A2780; experiment: Induction of cell cycle arrest in human A2780 cells assessed as accumulation of cells at G1 phase at 2 nM measured after 24 hrs by PI staining based ell Cycle Analysis Kit (KeyGEN) (reference value: 53.9%); type: functional
[23] = test system: A2780; experiment: Induction of cell cycle arrest in human A2780 cells assessed as accumulation of cells at S phase in presence of SB203580 at 4 nM measured after 24 hrs by PI staining based Cell Cycle Analysis Kit (KeyGEN) (reference value: 15%); type: functional
[24] = test system: A2780; experiment: Induction of apoptosis in human A2780 cells assessed as necrotic cells at 8 nM measured after 24 to 72 hrs by Annexin V-FITC/PI flow cytometry (reference value: 0.39%); type: functional; details: time 24-72 hrs
[25] = test system: A2780; experiment: Induction of apoptosis in human A2780 cells assessed as late apoptotic cells at 800 nM measured after 24 hrs by Annexin V-FITC/PI flow cytometry (reference value: 1.58%); type: functional
[26] = test system: A2780; experiment: Induction of apoptosis in human A2780 cells assessed as necrotic cells in presence of bafilomycin A1 at 800 nM measured after 24 hrs by Annexin V-FITC/PI flow cytometry (reference value: 0.18%); type: functional
[27] = test system: A2780; experiment: Cytotoxicity against human A2780 cells assessed as cell viability measured after 24 to 72 hrs by MTT assay; type: functional, cell-based; details: dose 4-64 nM, time 24-72 hrs
[28] = test system: A2780; experiment: Cytotoxicity against human A2780 cells assessed as cell viability measured after 48 hrs by MTT assay; type: functional, cell-based; details: A2780, 48 h
[29] = test system: A2780; experiment: Induction of LC3II expression in human A2780 cells in presence of autophagy inhibitor bafilomycin A1 at 5 to 20 nM measured after 24 hrs by Western blot analysis; type: functional, cell-based; details: dose 5-20 nM
[30] = test system: A2780; experiment: Cytotoxicity against human A2780 cells assessed as cell viability measured in presence of SB203580 after 48 hrs by MTT assay; type: functional, cell-based
[31] = test system: A2780; experiment: Induction of cell cycle arrest in human A2780 cells assessed as accumulation of cells at G2 phase at 1 nM measured after 24 hrs by PI staining based ell Cycle Analysis Kit (KeyGEN) (reference value: 22.2%); type: functional
[32] = test system: SK-OV-3; experiment: Cytotoxicity against human SK-OV-3 cells assessed as cell viability measured after 48 hrs by MTT assay; type: functional, cell-based; details: SK-OV-3, 48 h

## CC(C)[C@]12O[C@H]1[C@@H]1O[C@]13[C@]1(O[C@H]1C[C@H]1C4=C(CC[C@@]13C)C(=O)OC4)[C@@H]2O [TRIPTOLIDE]
[1]
  Activity: Tde
[2]
  Activity: 31.1%
[3]
  Activity: Dose-Dependent Effect
[4]
  Activity: Tde
[5]
  Activity: Dose-Dependent Effect
[6]
  Activity: 5.87%
[7]
  Activity: Active
[8]
  Activity: 90.3%
[9]
  Activity: inactive
[10]
  Activity: 29.5%
[11]
  Activity: inactive
[12]
  Activity: Tde
[13]
  viability at 0.8 µM: 74%
[14]
  Activity: Dose-Dependent Effect
[15]
  Activity: 65.9%
[16]
  Activity: 11.7%
[17]
  Activity: 27.4%
[18]
  Activity: inactive
[19]
  Activity: 9.88%
[20]
  Activity: Active
[21]
  Activity: inactive
[22]
  Activity: 62.6%
[23]
  Activity: 19.3%
[24]
  Activity: 5.59%
[25]
  Activity: 9.01%
[26]
  Activity: 0.75%
[27]
  Activity: Dose-Dependent Effect
[28]
  IC50: 1.83 µM
[29]
  Activity: inactive
[30]
  Activity: inactive
[31]
  Activity: 15.4%
[32]
  IC50: 0.803 µM
